Assay results reported in US11638427B2, “Methods and compositions for altering secondary metabolites in plants” (Impello Biosciences, Inc, priority 2020, dated 2023).

Experiments:
[1] = tested on: Cladosporium cladosporioides; assay: Mold growth on jasmonate-infused plates, mold isolated from tomato; format: cell-based; conditions: various concentrations in plates
Description: (§1) MDJ (TCI, CAS No.: 24851-98-7) and CJ were infused into potato dextrose agar (PDA, VWR Cat No.: 90003-494) petri dishes (100×15 mm VWR, Cat No: 25384-094) at concentrations ranging from 1 mM, 4.25 mM, and 10 mM. Each treatment was prepared using a technical grade stock solution of pure chemical (CJ or MDJ) diluted with TWEEN®-20 (VWR, CAS No.: […]). Culturable oyster mushroom and seedling mold served to create fungal mycelial plugs using a sterile 1 mL pipette tip (Eppendorf, Cat No.: 022491458) held upside down. The tips were used to make circle excisions (i.e., fungal plugs) from a mycelial mat grown on PDA with no biochemical infusions. Fungal pugs were then transferred to PDA infused with varying concentrations of CJ or MDJ, and control plates (no CJ or MDJ infusion) to monitor fungal growth at room temperature over time.
(§2) Based on the above results in Cannabis spp., additional fungi from various crops was sampled and tested. Plates comprising various concentrations of MDJ or MJ were prepared as described above.

Penicillium spp. = assay: Mold growth on jasmonate-infused plates, mold isolated from orange; format: cell-based; conditions: various concentrations in plates
Description: as §1, §2

grey mold = assay: Fungal plug growth on jasmonate-infused PDA plates; format: cell-based, Rhizopus stolonifera; conditions: for grey mold growth: 1 mM, 4.25 mM, 10 mM in PDA, 72 hours post inoculation
Description: as §1
A grey mold was also tested (FIGS. 10A-10D). All plates were generated and inoculated as described above and incubated at room temperature under identical conditions. Shown in […] are plates of grey mold 72 hours post fungal inoculation. Control plates are shown on the top row, followed by concentrations of MeJA (left) and MDJ (right) in duplicate at […] (FIG. 10A), 4.25 mM (FIG. 10B), and 10 mM (FIG. 10C). […] While it was initially hypothesized that the grey mod was a species of Botrytis, subsequent sequence analysis identified the mold as Rhizopus stolonifera.

seedling mold = assay: Fungal plug growth on jasmonate-infused PDA plates; format: cell-based, Trichoderma ghanense; conditions: for seedling mold growth: 1 mM, 4.25 mM, 10 mM in PDA, 72 hours post inoculation
Description: as §1
To compare the efficacy of MDJ and MeJA at inhibiting the same seedling mold as used in the experiment above, a second experiment was conducted using PDA plates infused with either MDJ or MeJA at different concentrations. All plates were generated and inoculated as described above and incubated at room temperature under identical conditions. Shown in FIGS. 9A-9C are plates of seedling mold 72 hours post fungal inoculation. Control plates are shown on the top row, followed by concentrations of MeJA (left) and MDJ (right) in duplicate at 1 mM (FIG. 9A), 4.25 mM (FIG. 9B), and 10 mM (FIG. 9C). […] Subsequent sequence analysis identified the “seedling mold” as Trichoderma ghanense.

[2] = tested on: high-CBD hemp varieties Stormy Daniels and BaOX; assay: Field foliar applications of MDJ, MeJA and CJ on high-CBD hemp, cannabinoid analysis; format: in vivo, Cannabis spp.; conditions: 7.5 mM foliar, four applications every 14 days in flowering
Description: However, MDJ is not known to have any significant bioactivity in planta and is not an endogenously produced phytohormone in cannabis, so it was unknown whether MDJ would afford the same functionality as MeJA. Similarly, CJ has likewise been relatively under-investigated as a plant elicitor despite being a decarboxylation product of Jasmonic Acid. Here, the effect of MDJ and CJ were analyzed (in addition to MeJA) in order to determine any difference in the effect of these treatments on field-grown high-CBD hemp varieties.
A hemp field experiment was conducted during the flowering phase of plant development in a private research field located in North Carolina. Sixty (60) plants from two distinct plant variety populations, Stormy Daniels and BaOX were selected for the trial. Each group of 60 plants was randomly divided into three groups of 20 plants and labeled accordingly to indicate the treatment group (T1, T2, T3). All plants were cultivated identically and subjected to approximately the same environmental conditions. Control, untreated plants were taken from the same field. Plants were treated according to treatment group, and each treatment group was subjected to four (4) applications of its respective treatment, with the first treatments applied on what was considered to be the first day of the flowering phase and repeated then again every successive 14 days up until just prior to harvest. Treatments were as follows: Control group=Control, Treatment 1=MDJ, Treatment 2=MeJA, Treatment 3=CJ.
All treatments were prepared in a stock (concentrated, non-aqueous) form by Impello Biosciences in their lab in Loveland, Colo. and labelled respectively prior to the start of the experiment. All treatments were prepared at a high stock concentration that allowed dilution by the applicator with 2 liters of water to a final 7.5 mM concentration of active ingredient (i.e., MeJA, MDJ, or CJ) for each treatment; 15-mL centrifuge tubes were used as preparation and storage vessels for each of the treatments. Preparation of the stock solutions ensured that the applicator could store the solutions prior to use at 4° C. to minimize degradation and allow for dilution immediately prior to use. In the stock containers, 2 mL of TWEEN®-20 was added to each respective elicitor compound as an emulsifier in order to reach a final oil-in-water emulsion once diluted with a concentration of 7.5 mM active ingredient and 0.1% surfactant (i.e., TWEEN®-20) v/v.
Plants were grown to maturity and 5 plants from each treatment and control group were sampled on Sep. 23, 2019. Care was taken to ensure samples were similar in appearance and spatial location between plants to minimize unintended variance in sample quality. The apical cola for each plant was harvested, and specifically, the top 3″ of the main cola. Yield data was not collected in this study, but no obvious differences in plant size or appearance were noted. Samples were submitted for chemical analysis (Avazyme, Inc, NC).
All models were linear models fit with Group (treatment) as the independent variable and the response variable was the corresponding compound. Data was filtered and comparison between treatments were conducted using the emmeans package and Tukey HSD for post-hoc corrections. Statistical significance was defined by a level of significance of p<0.05 in the Tukey test. Total cannabinoids included CBN, Δ9-THC, CBDV, CBG, CBD, CBC, CBDA, CBGA, THCA, and THCV. Total THC and total CBD were calculated by accounting for the additional weight of the carboxyl group in the acidic forms and adding those to the neutral/non-acidic forms.

[3] = at the 1 mM concentration, 72 hours

Compound | growth of mold isolated from tomato [1] | growth of mold isolated from orange (Penicillium spp.) | grey mold growth (grey mold) | efficacy at inhibiting grey mold, MDJ compared with MeJA (grey mold; [3]) | seedling mold growth (seedling mold) | seedling mold growth compared to control (seedling mold; all concentrations (1 mM, 4.25 mM, 10 mM) in PDA, 72 hours and 10 days) | efficacy at inhibiting seedling mold, MDJ compared with MeJA (seedling mold; [3]) | CBDA increase relative to the control group [2] | THCA increase relative to the control group [2] | Total CBD increase relative to the control group [2] | Total Cannabinoids increase relative to the control group [2] | Total THC increase relative to the control group [2] | efficacy at inhibiting grey mold, MeJA compared with MDJ (grey mold; at 4.25 mM and 10 mM concentrations, 72 hours)
CCCCCC1C(=O)CCC1CC(=O)OC (stereo not shown) [MDJ, methyl dihydrojasmonate] | effective at preventing the growth | effective at preventing the growth | inhibited | more effective | inhibited | showed inhibition | more effective | 16.53% | 19.69% | 16.62% | 16.38% | 19.61% | 
CC/C=C\C[C@H]1C(=O)CC[C@@H]1CC(=O)OC [MeJA, Methyl Jasmonate] | effective at preventing the growth | effective at preventing the growth | inhibited |  | inhibited |  |  | 5.36% | 5.36% | 5.75% | 5.64% | 6.06% | more effective
